The results in this text go back to ChEMBL document CHEMBL2016491, “Synthesis and structure-activity relationships of (aryloxy)quinazoline ureas as novel, potent, and selective vascular endothelial growth factor receptor-2 inhibitors” (J Med Chem, 2012).

A value given as a limit tells only on which side of the number the result lay.

Series [1] has as its system PC-3. Put plainly: Antiproliferative activity against human PC3 cells at 10 uM after 72 hrs by MTS assay. The format is functional. Conditions: PC-3, 72 h. On the technique in general: Tetrazolium dyes change colour on reduction, which living cells bring about.
The target in series [2] is Epidermal growth factor receptor (Homo sapiens, UniProt P00533). Put plainly: Inhibition of human EGFR expressed in human A431 cells using poly(Glu4/Tyr) and [gamma32P]ATP as substrate after 1 hr by scintillation counting. Also noted: species or system A-431.
Series [3] deals with HT-29. Kind of series: Antiproliferative activity against human HT-29 cells after 72 hrs by MTS assay. Particulars: HT-29, 72 h.
Series [4] concerns the target Vascular endothelial growth factor receptor 2 (Homo sapiens, UniProt P35968). Put plainly: Inhibition of recombinant human VEGFR-2 using poly(Glu4/Tyr) and [gamma32P]ATP as substrate after 1 hr by scintillation counting.
For series [5], the system named is MCF7. Kind of series: Antiproliferative activity against human MCF7 cells after 72 hrs by MTS assay. Conditions: MCF7, 72 h.
A short description of series [6]: Solubility of the compound. The format is physicochemical.

What is called inhibition is the change of the read-out against control, counted positive when it falls. Low readings indicate a weak effect, high ones a strong effect. As usually defined, the IC50 is the concentration that gives 50% inhibition.

Chain of Vascular endothelial growth factor receptor 2 (P35968 whole entry): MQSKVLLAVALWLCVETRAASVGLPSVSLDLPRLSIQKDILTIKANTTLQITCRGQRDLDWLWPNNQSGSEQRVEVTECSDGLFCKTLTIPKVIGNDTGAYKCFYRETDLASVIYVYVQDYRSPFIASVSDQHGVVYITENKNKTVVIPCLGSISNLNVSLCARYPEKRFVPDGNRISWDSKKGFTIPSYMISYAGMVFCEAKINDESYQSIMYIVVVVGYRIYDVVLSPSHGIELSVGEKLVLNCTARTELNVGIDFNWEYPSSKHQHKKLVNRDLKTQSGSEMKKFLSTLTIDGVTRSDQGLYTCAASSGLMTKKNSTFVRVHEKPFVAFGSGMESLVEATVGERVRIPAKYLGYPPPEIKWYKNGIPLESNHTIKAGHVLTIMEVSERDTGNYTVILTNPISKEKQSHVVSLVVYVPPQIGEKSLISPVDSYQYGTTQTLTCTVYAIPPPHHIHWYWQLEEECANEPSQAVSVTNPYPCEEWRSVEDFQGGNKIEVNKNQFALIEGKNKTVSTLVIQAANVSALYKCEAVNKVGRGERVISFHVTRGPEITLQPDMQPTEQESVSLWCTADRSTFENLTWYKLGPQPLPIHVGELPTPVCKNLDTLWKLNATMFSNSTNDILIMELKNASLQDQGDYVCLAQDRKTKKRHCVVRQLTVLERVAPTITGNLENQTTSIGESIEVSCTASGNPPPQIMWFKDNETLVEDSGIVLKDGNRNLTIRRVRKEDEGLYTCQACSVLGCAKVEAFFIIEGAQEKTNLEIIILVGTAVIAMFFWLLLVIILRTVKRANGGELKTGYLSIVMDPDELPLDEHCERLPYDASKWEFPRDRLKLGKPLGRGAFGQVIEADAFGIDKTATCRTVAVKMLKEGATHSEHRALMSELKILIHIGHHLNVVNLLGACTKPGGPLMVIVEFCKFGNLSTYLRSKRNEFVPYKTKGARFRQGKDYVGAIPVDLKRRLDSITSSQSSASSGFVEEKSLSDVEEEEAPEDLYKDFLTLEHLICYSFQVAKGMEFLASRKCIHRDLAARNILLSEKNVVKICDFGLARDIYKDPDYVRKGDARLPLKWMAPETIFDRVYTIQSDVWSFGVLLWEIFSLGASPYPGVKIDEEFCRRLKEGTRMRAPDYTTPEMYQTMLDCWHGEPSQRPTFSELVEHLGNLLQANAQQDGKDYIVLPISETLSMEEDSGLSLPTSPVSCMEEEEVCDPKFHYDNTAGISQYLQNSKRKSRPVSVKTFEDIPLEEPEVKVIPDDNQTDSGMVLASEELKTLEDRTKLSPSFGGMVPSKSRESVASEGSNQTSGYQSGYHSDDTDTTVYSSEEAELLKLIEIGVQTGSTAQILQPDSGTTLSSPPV
Chain of Epidermal growth factor receptor (P00533 whole entry): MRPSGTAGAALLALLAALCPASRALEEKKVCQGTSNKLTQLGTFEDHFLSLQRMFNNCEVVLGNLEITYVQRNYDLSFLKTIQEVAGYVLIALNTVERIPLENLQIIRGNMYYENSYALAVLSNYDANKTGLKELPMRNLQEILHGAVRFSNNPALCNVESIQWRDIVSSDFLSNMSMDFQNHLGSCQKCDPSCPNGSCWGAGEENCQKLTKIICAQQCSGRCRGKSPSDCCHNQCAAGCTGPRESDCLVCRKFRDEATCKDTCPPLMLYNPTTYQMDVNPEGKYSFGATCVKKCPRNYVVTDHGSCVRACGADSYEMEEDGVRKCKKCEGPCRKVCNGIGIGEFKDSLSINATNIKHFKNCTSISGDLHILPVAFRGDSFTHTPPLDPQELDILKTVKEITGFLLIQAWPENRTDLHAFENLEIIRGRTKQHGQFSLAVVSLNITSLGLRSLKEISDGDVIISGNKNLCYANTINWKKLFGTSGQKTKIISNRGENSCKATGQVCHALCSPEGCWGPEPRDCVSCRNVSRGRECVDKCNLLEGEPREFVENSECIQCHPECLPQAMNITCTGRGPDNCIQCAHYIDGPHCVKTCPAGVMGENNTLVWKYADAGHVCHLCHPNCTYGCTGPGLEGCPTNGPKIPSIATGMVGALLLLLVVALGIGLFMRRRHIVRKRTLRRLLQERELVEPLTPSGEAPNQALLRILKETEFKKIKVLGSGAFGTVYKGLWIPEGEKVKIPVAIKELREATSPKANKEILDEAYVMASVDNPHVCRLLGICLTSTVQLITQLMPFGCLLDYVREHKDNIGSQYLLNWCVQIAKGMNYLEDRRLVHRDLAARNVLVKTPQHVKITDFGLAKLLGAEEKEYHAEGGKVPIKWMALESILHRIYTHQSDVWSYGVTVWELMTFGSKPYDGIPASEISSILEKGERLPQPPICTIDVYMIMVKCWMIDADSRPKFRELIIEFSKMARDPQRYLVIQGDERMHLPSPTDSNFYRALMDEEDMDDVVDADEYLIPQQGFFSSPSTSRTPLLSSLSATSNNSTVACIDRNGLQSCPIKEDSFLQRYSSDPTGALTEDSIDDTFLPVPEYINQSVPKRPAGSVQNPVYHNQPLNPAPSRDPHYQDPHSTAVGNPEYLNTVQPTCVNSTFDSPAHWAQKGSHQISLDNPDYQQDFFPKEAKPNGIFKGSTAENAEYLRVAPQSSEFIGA

For the compound `CCN(CC)CCOc1cc2ncnc(Nc3ccc(C)c(Br)c3)c2cc1OC`, the inhibition at 10 µM in series [1] came out at 36%. Besides, the IC50 turned out to be 9.45 µM in series [2], 2.55 µM in series [3], 6.45 µM in series [4] and 9.6 µM in series [5].
Taken in the same sequence, the figures for `CCCCOc1cc2c(Nc3ccc(Br)cc3F)ncnc2cc1OCCN(CC)CC` were 31%, greater than 10 µM, 3.6 µM, 5.3 µM and 7.7 µM.
In series [1], `COc1cc2ncnc(Oc3ccc(NC(=O)Nc4cccc(Br)c4)cc3)c2cc1OC` came in with an inhibition at 10 µM of 35%. Moreover, the 50% inhibitory concentration (IC50) in series [2] is greater than 10 µM; in series [3] it was 9.1 µM; in series [4], 0.006 µM; in series [5], 9.8 µM. Also, in series [6], the solubility entry is reported as “Insoluble”.
